Read-outs that look alike come from different tables or passages of the source.
Key:
[1] = molecular target: T1, CapB2 and CapA1Ct (GST-CapA1Ct) (Staphylococcus aureus, UniProt A8YPQ5+A8YPQ6); conditions: 10 µM ATP, 5 mM MgCl2, pH 7.5, 37°C; labelled compound; GST-CapA1Ct(ΔN222) as activator
Target sequence in this assay (A8YPQ5 entry or part of it, one chain of several): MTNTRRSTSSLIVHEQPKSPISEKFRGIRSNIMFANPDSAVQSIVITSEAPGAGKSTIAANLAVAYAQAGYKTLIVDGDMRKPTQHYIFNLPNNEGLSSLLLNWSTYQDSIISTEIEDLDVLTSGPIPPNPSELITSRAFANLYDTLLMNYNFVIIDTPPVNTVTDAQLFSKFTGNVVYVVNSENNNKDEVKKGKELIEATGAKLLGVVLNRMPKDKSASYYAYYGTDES

[2] = molecular target: T1, CapB2 and CapA1Ct (GST-CapA1Ct); conditions: 10 µM ATP, 5 mM MgCl2, pH 7.5, 37°C; labelled compound; GST-CapA1Ct as activator
Target sequence in this assay (A8YPQ5 entry or part of it, one chain of several): as above

[3] = molecular target: T2, CapB1 (Met1 to Glu228), as it stands in the CapA1B1 chimera (Staphylococcus aureus, UniProt A8YPQ8 1-228); assay: crystal structure; conditions: both partners purified
T2 construct: also called Cap5B1; source: E. coli BL21(DE3), purified (IMAC, gel filtration) as part of the chimera CapA1B1
T2 sequence: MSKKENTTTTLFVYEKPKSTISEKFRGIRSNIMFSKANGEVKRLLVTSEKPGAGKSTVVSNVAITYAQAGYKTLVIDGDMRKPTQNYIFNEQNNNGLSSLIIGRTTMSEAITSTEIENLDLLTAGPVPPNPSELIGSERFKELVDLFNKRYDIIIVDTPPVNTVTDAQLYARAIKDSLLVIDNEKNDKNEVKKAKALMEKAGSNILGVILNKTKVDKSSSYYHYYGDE

Molecule: Nc1ncnc2c1ncn2[C@@H]1O[C@H](COP(=O)(O)OP(=O)(O)OP(=O)(O)O)[C@@H](O)[C@H]1O [ATP]
- autophosphorylation with [γ-32P]ATP, SDS-PAGE, autoradiography [1]: the Asn222 deletion did not affect the CapA1 ability to trigger CapB2 autophosphorylation
- autophosphorylation with [γ-32P]ATP, SDS-PAGE, autoradiography [2]: CapB2 was incubated in the presence of radioactive ATP and different (wild type or mutated)

B1: CapA1 C-terminal juxtamembrane fragment (Val194 to Asn222), as it stands in the CapA1B1 chimera (domain or fragment)
chain: VIFDKRIKDEEDVEKELGLPVLGSIQKFN
notes: also called Cap5A1; source: E. coli BL21(DE3), purified (IMAC, gel filtration) as part of the chimera CapA1B1
- binding result [3]: binds
